Results from publication PMC9391280, “A High-Throughput Fluorescent Turn-On Assay for Inhibitors of DHHC Family Proteins” (ACS Chemical Biology, 2022).
Read-outs that look alike come from different tables or passages of the source.

Key:
[1] = target: T1, zDHHC2 (Homo sapiens, UniProt Q9UIJ5); assay: PTP fluorogenic assay, single concentration […]; type: biochemical
T1 sequence (Q9UIJ5 1-367): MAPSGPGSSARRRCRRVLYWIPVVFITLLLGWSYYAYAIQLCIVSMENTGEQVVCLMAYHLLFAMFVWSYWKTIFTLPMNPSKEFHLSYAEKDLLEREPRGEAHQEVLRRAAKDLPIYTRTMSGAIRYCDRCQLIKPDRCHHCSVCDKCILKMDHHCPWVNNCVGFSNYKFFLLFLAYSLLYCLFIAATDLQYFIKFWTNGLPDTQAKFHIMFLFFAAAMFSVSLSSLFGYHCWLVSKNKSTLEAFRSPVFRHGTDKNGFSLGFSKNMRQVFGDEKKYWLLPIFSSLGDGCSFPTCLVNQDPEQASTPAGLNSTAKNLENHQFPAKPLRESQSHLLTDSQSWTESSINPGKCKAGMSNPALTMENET

[2] = target: T2, zDHHC3 (Homo sapiens, UniProt Q9NYG2); assay: PTP fluorogenic assay, single concentration […]; type: biochemical
T2 sequence (Q9NYG2 1-299): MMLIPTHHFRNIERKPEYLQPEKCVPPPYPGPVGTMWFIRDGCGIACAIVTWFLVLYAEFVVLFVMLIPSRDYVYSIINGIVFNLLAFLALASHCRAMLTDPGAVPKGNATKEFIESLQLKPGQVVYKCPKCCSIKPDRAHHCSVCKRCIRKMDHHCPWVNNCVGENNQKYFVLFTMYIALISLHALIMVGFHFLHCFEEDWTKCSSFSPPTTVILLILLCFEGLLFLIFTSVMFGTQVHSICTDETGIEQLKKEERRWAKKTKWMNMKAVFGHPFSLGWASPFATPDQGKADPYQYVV

[3] = target: T3, zDHHC20 (Homo sapiens, UniProt Q5W0Z9); assay: PTP fluorogenic turn-on assay with purified zDHHC20; type: biochemical
T3 sequence (Q5W0Z9 1-365): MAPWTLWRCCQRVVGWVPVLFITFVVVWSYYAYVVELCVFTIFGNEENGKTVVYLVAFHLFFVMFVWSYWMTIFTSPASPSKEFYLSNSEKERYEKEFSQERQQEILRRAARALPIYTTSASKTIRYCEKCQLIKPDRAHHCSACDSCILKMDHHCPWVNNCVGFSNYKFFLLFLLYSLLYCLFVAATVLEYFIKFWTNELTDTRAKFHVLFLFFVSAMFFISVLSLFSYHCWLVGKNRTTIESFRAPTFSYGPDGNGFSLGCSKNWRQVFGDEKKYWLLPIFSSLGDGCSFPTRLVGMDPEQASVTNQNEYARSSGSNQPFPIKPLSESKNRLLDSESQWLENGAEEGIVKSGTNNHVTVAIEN

[4] = target: T1, zDHHC2; assay: fluorogenic probe uncaging by purified enzyme ([…] probe); type: biochemical
[5] = target: T2, zDHHC3; assay: as above; type: biochemical
[6] = substrate: CCCCCCCCCCCCCCCC(=O)SCCN(C)C(=O)Oc1ccc2c(c1)Oc1cc(N3CCN(C(=O)CCCC(=O)O)CC3)ccc1C21OC(=O)c2ccccc21; assay: purified protein; details: palmitoyl-CoA mimetic; turnover depends on the key catalytic cysteine of the DHHC motif

With CCCCCCCCCCCCCCC(Br)C(=O)O (stereo not shown) [2BP, 2-Bromopalmitate] the “PTP fluorogenic assay, single concentration 20 μM” value [1] was “both CMA and 2BP were able to inhibit zDHHC2, zDHHC3, and zDHHC20”, the “PTP fluorogenic assay, single concentration 20 μM” value [2] was “both CMA and 2BP were able to inhibit zDHHC2, zDHHC3, and zDHHC20” and the IC50 [3] was 2020 ± 290 nM.

Molecule C=CC(=O)N(CC#N)CCCCCCCCCCCCCC [CMA, cyanomyracrylamide] has an IC50 ([3]; read-out: IC50) of 463 ± 70 nM.

For CCCCCCCCCCCCCCCC(=O)SCCN(C)C(=O)Oc1ccc2c(c1)Oc1cc(N3CCN(C(=O)CCN4CCOCC4)CC3)ccc1C21OC(=O)c2ccccc21 (stereo not shown) [PTP-3], the “fluorogenic probe uncaging by purified enzyme (4 μM probe)” value [4] was “PTP-3, the morpholino compound, was the best substrate for these two DHHCs” and the “fluorogenic probe uncaging by purified enzyme (4 μM probe)” value [5] was “PTP-3, the morpholino compound, was the best substrate for these two DHHCs”.

B1: zDHHC20 (Homo sapiens) (protein)
chain: MAPWTLWRCCQRVVGWVPVLFITFVVVWSYYAYVVELCVFTIFGNEENGKTVVYLVAFHLFFVMFVWSYWMTIFTSPASPSKEFYLSNSEKERYEKEFSQERQQEILRRAARALPIYTTSASKTIRYCEKCQLIKPDRAHHCSACDSCILKMDHHCPWVNNCVGFSNYKFFLLFLLYSLLYCLFVAATVLEYFIKFWTNELTDTRAKFHVLFLFFVSAMFFISVLSLFSYHCWLVGKNRTTIESFRAPTFSYGPDGNGFSLGCSKNWRQVFGDEKKYWLLPIFSSLGDGCSFPTRLVGMDPEQASVTNQNEYARSSGSNQPFPIKPLSESKNRLLDSESQWLENGAEEGIVKSGTNNHVTVAIEN
For B1, the Km [6] was 24.3 µM.
